Entries after “also recorded” stand apart in the source; their conditions may differ.
Tests used:
sickle cells [1] = test: Microfluidic assay of the efficacy of an anti-sickling oxygen modulator on patient samples; format: cell-based, human; conditions: blood samples of 5 patients; FIG. 6D
Source text: This, however, could not be detected using conventional hematological assay, such as Hb electrophoresis or HPLC.

sickle cells [2] = test: Microfluidic cell sickling assay (kinetics of cell sickling) under controlled low O2 tension, cell-imaging analysis; format: cell-based, human; conditions: sickle cells from patients on HU treatment vs off HU; PaO2 15 mm Hg; FIG. 6A
Protocol: (§1) A study was conducted to develop and evaluate the exemplary system and method comprising microfluidic assays of sickle cell functional properties to provide quantitative assessments of disease heterogeneity and severity. A microfluidic strategy for on-chip O2 control was developed, which is critical to measure O2-dependent sickle cell functional properties. This method utilizes gas permeability of thin PDMS film (˜150 μm thick) that enables rapid diffusion of O2 at a specific PaO2 value from the gas channel to the cell channel. […]
(§2) Cell sickling events induced by exposing sickle cells to a transient hypoxia (e.g., reduce the atmospheric (atm) PaO2 to a low O2 tension level) are measured under stationary condition (FIG. 5A). […] Sickle cell rheology (deformability and occlusion) are measured under flow condition for 60 s, where sickle cells with extended delay time in HbS polymerization can escape the micro-slits but those containing rigid HbS fibers (undissolved HbS or hypoxia induced HbS fibers) lose their deformability and become trapped at the micro-slits (FIG. 5B). These two aspects of sickle cell behavior measured under controlled O2 tension (in exposure to testing PaO2 15 mm Hg briefly for 60 s) provided quantitative cell functional assessment, which show strong linear correlation to patient's HbS level, as obtained from standard HPLC (FIG. 5C and FIG. 5D). […]

sickle cells [3] = test: Microfluidic sickle cell rheology assay (occlusion/obstruction at micro-slits) under controlled low O2 tension; format: cell-based, human; conditions: sickle cells from patients with HU treatment vs without; PaO2 15 mm Hg, flow 60 s; FIG. 6B
Protocol: as §1, §2

fetal hemoglobin (HbF) = conditions: hematological response to HU, literature [38]; cited from earlier work

Structure (SMILES)	dose dependence of anti-sickling efficacy, patient-specific response (sickle cells [1])	delay time of cell sickling events (sickle cells [2])	occlusion fraction (obstruction in micro-slits) (sickle cells [3])	HbF level in some patients (fetal hemoglobin (HbF))
O=Cc1ccc(CO)o1 [5HMF, 5-(hydroxymethyl) furfural]	patient-specific response; also recorded: dosedependence is similar among 5 patients, but significant variations exist	–	–	–
NC(=O)NO [HU, hydroxyurea]	–	significantly extended	much less obstruction	up to 40%

From US20250035576A1, “AUTOMATED OXYGEN-DEPENDENT BLOOD FUNCTION MEASUREMENT SYSTEMS AND METHODS” (FLORIDA ATLANTIC UNIVERSITY BOARD OF TRUSTEES, priority 2023, published 2025)
